# Data taken from PMC11219871, “Epigenetic-based differentiation therapy for Acute Myeloid Leukemia” (Nature Communications, 2024).
# Values joined by “and” are separate entries in the source; they are usually repeats but may differ in a detail not shown here. Equal entries are not always repeated. Where two headings read alike, the source gives them in different places.
# Columns and labels:
# [1] = system: LINE-1 DNA methylation in HL-60; assay: LINE-1 pyrosequencing; assay type: cell-based, human
# Procedure: (§1) DNA methylation of the repetitive element LINE-1 was analyzed using a pyrosequencing technique. […] Cells were washed twice with PBS, and then genomic DNA was extracted using a DNA Kit (Nucleo Spin Tissue, Cat No 74095250, Macherey-Nagel) following the manufacturer's instructions. DNA purity and concentration were measured using a NanoDrop spectrophotometer (Thermo Scientific). A 1 μg amount of genomic DNA was treated and modified using a CpGenome DNA modification Kit (Cat No S7820, Chemicon International) following the manufacturer's instructions. […] [NT]) in a final volume of 25 μL. The resulting biotinylated PCR products were immobilized to Streptavidin Sepharose ® High-Performance beads (GE Healthcare) and processed to yield high-quality ssDNA using the PyroMark Vacuum Prep Workstation (Biotage) according to the manufacturer's instructions. The pyrosequencing reactions were performed using the PyromarkTM ID (Biotage), and sequence analysis was performed using the PyroQ-CpG analysis software (Biotage).
# [2] = system: LINE-1 DNA methylation in MV4-11; assay: LINE-1 pyrosequencing; assay type: cell-based, human
# Procedure: as §1
# [3] = system: LINE-1 DNA methylation in MOLM-13; assay: LINE-1 pyrosequencing; assay type: cell-based, human
# Procedure: as §1
# [4] = system: LINE-1 DNA methylation in ML-2; assay: LINE-1 pyrosequencing; assay type: cell-based, human
# Procedure: as §1
# [5] = Liver microsomal stability; assay type: in vitro ADME; conditions: read-out: Liver Microsomal Stability Estimation T1/2
# Procedure: This study was conducted at Wuxi (http://www.wuxi.com/). […] A 5-μL aliquot of stock solution of test compound (10 mM; 100% DMSO) was diluted in 495 μL of […] (final concentration of 100 μM, 99% MeOH). Then, 50 μL of this intermediate solution was diluted in 450 μL of 100 mM potassium phosphate buffer to a concentration of 10 μM (working solution, 9.9% MeOH). The β-nicotinamide adenine dinucleotide phosphate reduced form (NADPH) regenerating system also contained tetrasodium salt, NADPH•4Na (Sigma, Cat.# No.00616). Human liver microsomes were obtained from Corning (Cat.#452117), and C57 mouse liver microsomes from Xenotech (Cat.#M5000), at a final concentration of 0.5 mg protein/mL. A volume of 10 μL of working solution of test and control compounds (testosterone, diclofenac and propafenone) and 80 μL/well microsome solution were added to a 96-well plate and incubated for 10 min at 37 °C. The reaction was started by the addition of 10 μL of NADPH regenerating system and stopped by the addition of 300 μL of stop solution (acetonitrile at 4 °C, including 100 ng/mL tolbutamide and 100 ng/mL of labetalol as internal standard) at different incubation times (0, 5, 10, 20, 30, and 60 min). Then, the samples were shaken for 10 min and centrifuged at 1699 g for 20 min at 4 °C. An aliquot of supernatant (100 μL) was transferred from each well and mixed with 300 μL of ultra-pure water before submitting to LC-MS/MS analysis. Concentrations of test and control compounds were quantified by LC-MS/MS using a peak area ratio of analyte/internal standard, and the percent loss of the parent compound was calculated at each time point to determine the half-life (t1/2, min). Experiments were performed in duplicate.
# HDAC11 = target: T1, HDAC11 (Homo sapiens, UniProt Q96DB2); assay: Continuous and direct activity assay for HDAC11; assay type: biochemical
# T1 sequence (Q96DB2 1-347): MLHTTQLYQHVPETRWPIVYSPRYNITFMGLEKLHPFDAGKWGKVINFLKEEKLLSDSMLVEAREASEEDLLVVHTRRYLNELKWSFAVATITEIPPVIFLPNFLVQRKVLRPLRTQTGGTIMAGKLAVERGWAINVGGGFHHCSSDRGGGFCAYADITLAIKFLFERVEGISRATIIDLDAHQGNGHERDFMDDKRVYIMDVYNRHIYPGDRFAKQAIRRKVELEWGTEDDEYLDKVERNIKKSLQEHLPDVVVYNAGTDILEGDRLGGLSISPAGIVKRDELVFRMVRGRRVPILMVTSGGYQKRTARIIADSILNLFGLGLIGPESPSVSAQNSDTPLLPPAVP
compound,measurement,setting,value
"COc1cc2nc(-c3ccc(C)o3)cc(NCC3CCN(c4ncc(C(=O)NO)cn4)CC3)c2cc1OC [CM-444, 2-[4-[[[6,7-dimethoxy-2-(5-methyl-2-furyl)-4-quinolyl]amino]methyl]-1-piperidyl]pyrimidine-5-carbohydroxamic acid]",LINE-1 methylation (%) CG Position 1,"[1]; 48 h, 0.27 µM",97%
same,LINE-1 methylation (%) CG Position 2,"[1]; 48 h, 0.27 µM",83%
same,LINE-1 methylation (%) CG Position 3,"[1]; 48 h, 0.27 µM",100%
same,LINE-1 methylation (%) CG Position 4,"[1]; 48 h, 0.27 µM",100%
same,LINE-1 methylation (%) CG Position 5,"[1]; 48 h, 0.27 µM",73%
same,LINE-1 methylation (%) CG Position 1 Replicate 1,"[1]; HL-60, 48 h",96%
same,LINE-1 methylation (%) CG Position 1 Replicate 2,"[1]; HL-60, 48 h",98%
same,LINE-1 methylation (%) CG Position 2 Replicate 1,"[1]; HL-60, 48 h",84%
same,LINE-1 methylation (%) CG Position 2 Replicate 2,"[1]; HL-60, 48 h",82%
same,LINE-1 methylation (%) CG Position 3 Replicate 1,"[1]; HL-60, 48 h",100%
same,LINE-1 methylation (%) CG Position 3 Replicate 2,"[1]; HL-60, 48 h",100%
same,LINE-1 methylation (%) CG Position 4 Replicate 1,"[1]; HL-60, 48 h",100%
same,LINE-1 methylation (%) CG Position 4 Replicate 2,"[1]; HL-60, 48 h",100%
same,LINE-1 methylation (%) CG Position 5 Replicate 1,"[1]; HL-60, 48 h",72%
same,LINE-1 methylation (%) CG Position 5 Replicate 2,"[1]; HL-60, 48 h",74%
same,LINE-1 methylation (%) CG Position 1,"[1]; HL-60, 10 days",77% and 81%
same,LINE-1 methylation (%) CG Position 2,"[1]; HL-60, 10 days",66% and 70%
same,LINE-1 methylation (%) CG Position 3,"[1]; HL-60, 10 days",71% and 75%
same,LINE-1 methylation (%) CG Position 4,"[1]; HL-60, 10 days",86% and 88%
same,LINE-1 methylation (%) CG Position 5,"[1]; HL-60, 10 days",65% and 63%
same,LINE-1 methylation (%) CG Position 1,"[2]; MV4-11, 48 hours",83% and 85%
same,LINE-1 methylation (%) CG Position 2,"[2]; MV4-11, 48 hours",79% and 77%
same,LINE-1 methylation (%) CG Position 3,"[2]; MV4-11, 48 hours",99% and 97%
same,LINE-1 methylation (%) CG Position 4,"[2]; MV4-11, 48 hours",100%
same,LINE-1 methylation (%) CG Position 5,"[2]; MV4-11, 48 hours",70% and 66%
same,LINE-1 methylation (%) CG Position 1,"[2]; MV4-11, 5 days",80% and 82%
same,LINE-1 methylation (%) CG Position 2,"[2]; MV4-11, 5 days",79% and 77%
same,LINE-1 methylation (%) CG Position 3,"[2]; MV4-11, 5 days",77%
same,LINE-1 methylation (%) CG Position 4,"[2]; MV4-11, 5 days",91% and 89%
same,LINE-1 methylation (%) CG Position 5,"[2]; MV4-11, 5 days",65% and 67%
same,LINE-1 methylation (%) CG Position 1,"[3]; MOLM-13, 48 hours",100%
same,LINE-1 methylation (%) CG Position 2,"[3]; MOLM-13, 48 hours",83% and 79%
same,LINE-1 methylation (%) CG Position 3,"[3]; MOLM-13, 48 hours",100%
same,LINE-1 methylation (%) CG Position 4,"[3]; MOLM-13, 48 hours",100%
same,LINE-1 methylation (%) CG Position 5,"[3]; MOLM-13, 48 hours",74% and 78%
same,LINE-1 methylation (%) CG Position 1,"[3]; MOLM-13, 5 days",62%
same,LINE-1 methylation (%) CG Position 2,"[3]; MOLM-13, 5 days",60% and 68%
same,LINE-1 methylation (%) CG Position 3,"[3]; MOLM-13, 5 days",69% and 73%
same,LINE-1 methylation (%) CG Position 4,"[3]; MOLM-13, 5 days",74% and 76%
same,LINE-1 methylation (%) CG Position 5,"[3]; MOLM-13, 5 days",53% and 55%
same,LINE-1 methylation (%) CG Position 1,"[4]; ML-2, 48 hours",65% and 67%
same,LINE-1 methylation (%) CG Position 2,"[4]; ML-2, 48 hours",73%
same,LINE-1 methylation (%) CG Position 3,"[4]; ML-2, 48 hours",77% and 81%
same,LINE-1 methylation (%) CG Position 4,"[4]; ML-2, 48 hours",86% and 88%
same,LINE-1 methylation (%) CG Position 5,"[4]; ML-2, 48 hours",56% and 64%
same,LINE-1 methylation (%) CG Position 1,"[4]; ML-2, 10 days",61% and 57%
same,LINE-1 methylation (%) CG Position 2,"[4]; ML-2, 10 days",48% and 46%
same,LINE-1 methylation (%) CG Position 3,"[4]; ML-2, 10 days",66% and 62%
same,LINE-1 methylation (%) CG Position 4,"[4]; ML-2, 10 days",64% and 60%
same,LINE-1 methylation (%) CG Position 5,"[4]; ML-2, 10 days",46% and 44%
same,half-life at 1 µM,"[5]; C57, mouse liver microsomes",18.4 min
same,half-life at 1 µM,[5]; human liver microsomes,28.8 min
same,inhibition at 10 µM,"HDAC11; 10 µM, source data of Fig. 1B",90%
same,IC50,HDAC11; Continuous Activity Assay for HDAC11,568 nM
